For assay [1], the system named is ESCs [SHEF1]. As to the kind of experiment: Immunofluorescence of endoderm markers FoxA2 and HNF4α, percent positive cells. It counts as cell-based, human. To be noted: 5 days. On the procedure:
(§1) (A) RNA was extracted from ESCs [SHEF1] cultured for 7 days in the presence of 2 μM 1M for the days indicated. RT-PCR analyses were performed using primers selective for the genes indicated. (B) ESCs [SHEF1] were treated with 2 μM 1M alone or in combination with 10 μM SB43125 (S) for the days indicated and RT-PCR performed on the extracted RNA. (C) ESCs [SHEF3] were treated with 1M alone or in combination with 100 ng/ml Activin A (A) for the days indicated and RT-PCR performed. (D). ESCs [SHEF1] were treated with 2 μM 1M, or 100 ng/ml ActivinA (A) alone or in combination with 1M for 5 days. Expression of the endoderm markers FoxA2 and HNF4α was analysed by immunofluorescence. The number of percent positive cells averaged from 3 fields of view +/−SD are indicated. Scale bar represents 50 μm. (E) ESCs [SHEF1] were treated with 2 μM 1M, or 100 ng/ml ActivinA (A) alone or in combination with 1M for 5 days. Expression of the DE marker CXCR4 was alaysed by flow cytometry.
ESCs were cultured on Matrigel®-coated lummox (Greiner Bio One) trays and fixed with 4% paraformaldehyde (PFA) for 20 minutes at room temperature. Cells were permeabilised in PBST (with 0.1% Triton X-100) and blocked in 10% blocking reagent (Roche) before incubating with primary antibodies in 2% blocking reagent overnight at 4° C. After washing in PBS, cells were incubated with FITC-conjugated secondary antibodies (Vector Labs) for 3 hours at room temperature. After further washing, the cells were stained with 4,6-diamidino-2-phenylindole (DAPI) (SIGMA), washed again and mounted in MOWIOL. The following antibodies and dilutions were used: goat-anti-FoxA2 (1:100, R&D. Systems), mouse anti-Sox17 (1:50, R&D Systems), rabbit anti-HNF4α (1:100, Santa Cruz), rabbit anti-AFP (1:100, DAKO), rabbit anti-TTR (1:100, DAKO). Images were captured on a Zeiss 510 Meta confocal microscope using a 40× objective.

Assay [2] concerns ESCs [SHEF1]. As to the kind of experiment: RT-PCR of Activin/Nodal pathway and differentiation marker genes. It counts as cell-based, human. The settings on record: 2 μM, after 1 day, maintained up to 3 days, basal by day 7. The procedure:
as §1
Total RNA was isolated and purified using TRIzol Reagent (Invitrogen), following the manufacturer's instructions. All RNA samples were treated with DNase I (Ambion) before cDNA synthesis to eliminate any contaminating genomic DNA. RNA (1 μg) was reverse transcribed into cDNA using Oligo(dT)15 (Promega) and SuperScript II (Invitrogen). Gene-specific PCR was carried out using primers and annealing temperatures outlined in Table 2.

As to `O=C1NC(=O)C2=C1c1cn(c3ccccc13)CCOCCOCCOCCOCCn1cc2c2ccccc21` [1M], in assay [1] (2 μM 1M or 100 ng/ml Activin A), the “FOXA2 expressing cells in the entire population” value is given as 35-40% and the HNF4α-expressing cells was 20%. Also, in assay [1] (2 μM, within clusters), the “FoxA2 positive cells in clusters of cells” value was 73%. In assay [2], the NODAL gene expression result is listed as “increase in NODAL gene expression”.
